“And” between values parts separate entries of the source, which are not always exact repeats. Equal values may be shown once. Blank lines part the entries; values can stand above or below the compound they belong to.
Test: solvent given as SMILES
[1] = in O=P(c1ccccc1)(c1ccccc1)c1ccccc1Oc1ccccc1P(=O)(c1ccccc1)c1ccccc1

SMILES: Cc1cc(=O)oc2cc(/[NH+]=C/C=C3/C=C(C(=O)O)NC(C(=O)O)C3)ccc12 (stereo not given)
emission maximum (in O): 570 nm

SMILES: [O-][n+]1c(/C=C/c2ccc(/C=C/c3ccccc3)cc2)nc(N2CCOCC2)c2c1CCCC2
emission maximum (in ClCCl): 531 nm

SMILES: Nc1ccc2cc(-c3ccc(C(F)(F)F)cc3)oc(=O)c2c1
emission maximum (in CC(C)=O): 439 nm | emission maximum (in CCCCCC): 418 nm | emission maximum (in CCCCO): 460 nm | emission maximum (in CCCO): 459 nm | emission maximum (in CCO): 460 nm | emission maximum (in CCOC(C)=O): 436 nm | emission maximum (in CN(C)C=O): 448 nm | emission maximum (in CO): 461 nm | emission maximum (in ClC(Cl)Cl): 438 nm

SMILES: CCCC1=Cc2nc1ccc1[nH]c(cc1CCC)c1nc(c(NC(=O)CCCC(=O)O)cc3[nH]c2cc3CCC)C(CCC)=C1
emission maximum (in ClCCl): 680 nm

SMILES: CC(C)(C)c1ccc2c(c1)c1cc(C(C)(C)C)ccc1n2-c1cc[n+]2c(c1)-c1ccccc1O[B-]2(F)F
emission maximum (in Cc1ccccc1): 473 nm | emission maximum [1]: 488 nm

SMILES: CC[n+]1nc2cc3c4c(c2c2ccccc21)CCCN4CCC3
emission maximum (in O): 570 nm

SMILES: CN(C)c1ccc(/C=C/C(=O)c2ccc(Cl)cc2)cc1
emission maximum (in C1CCOC1): 516 nm | emission maximum (in CC#N): 540 nm | emission maximum (in CC(=O)O): 521 nm | emission maximum (in CC(C)=O): 532 nm | emission maximum (in CCO): 542 nm | emission maximum (in CN(C)C=O): 542 nm | emission maximum (in CO): 544 nm | emission maximum (in Cc1ccccc1): 486 nm | emission maximum (in ClC(Cl)Cl): 522 nm | emission maximum (in c1ccccc1): 488 nm

SMILES: c1ccc(-c2cc(-c3ccc(N4c5ccccc5C(c5ccccc5)(c5ccccc5)c5ccccc54)cc3)nc(-c3ccccc3)n2)cc1
emission maximum (in Cc1ccccc1): 450 nm | emission maximum [1]: 464 nm

SMILES: O=C1CCCC2=C1C(c1ccccc1)c1c(c3ccccc3oc1=O)N2 (stereo not given)
emission maximum (in CS(C)=O): 440 nm

SMILES: Cc1cccc(C)c1N1C(c2ccccc2)=Cc2ccc3ccccc3[n+]2[B-]1(F)F
emission maximum (in ClCCl): 468 nm

SMILES: CCCCCCN1C(=O)c2cccc3c(-c4ccc(OC)s4)ccc(c23)C1=O
emission maximum (in ClC(Cl)Cl): 503 nm

SMILES: Cc1ccc(-c2cc(-c3ccccc3Cl)c3c(N)nc(N4CCCC4)c(C#N)c3n2)cc1
emission maximum (in CC#N): 526 nm | emission maximum (in CC(C)=O): 522 nm | emission maximum (in CC(C)O): 516 nm | emission maximum (in CO): 525 nm | emission maximum (in ClC(Cl)Cl): 508 nm | emission maximum (in ClCCl): 514 nm | emission maximum (in c1ccccc1): 512 nm

SMILES: CN(C)c1ccc(C=C/C=C/C=C/c2ccc(C#N)cc2)cc1
emission maximum (in C1CCOC1): 609 nm | emission maximum (in CC#N): 658 nm | emission maximum (in CCCC#N): 640 nm | emission maximum (in CCCCCC): 467 nm | emission maximum (in CCCCOCCCC): 541 nm | emission maximum (in CCO): 637 nm | emission maximum (in CCOCC): 567 nm

SMILES: Cc1ccc(-c2ccc(/C=C/c3cccn3C)cn2)nc1
emission maximum (in C1COCCO1): 464 nm | emission maximum (in CC#N): 488 nm | emission maximum (in CCCCCC): 436 nm | emission maximum (in CCO): 501 nm | emission maximum (in CN(C)C=O): 493 nm | emission maximum (in CO): 507 nm | emission maximum (in CS(C)=O): 500 nm | emission maximum (in Cc1ccccc1): 459 nm | emission maximum (in ClC(Cl)Cl): 476 nm | emission maximum (in c1ccccc1): 464 nm

SMILES: CCCCC[n+]1ccc(/C=C/c2ccc(N(C)C)c3ccccc23)c2ccccc21
emission maximum (in C1CCOC1): 697 nm | emission maximum (in C1COCCO1): 680 nm | emission maximum (in CC#N): 720 nm | emission maximum (in CC(C)=O): 714 nm | emission maximum (in CCCCO): 695 nm | emission maximum (in CCO): 670 nm | emission maximum (in CN(C)C=O): 721 nm | emission maximum (in CO): 708 nm | emission maximum (in CS(C)=O): 720 nm | emission maximum (in O): 697 nm | emission maximum (in c1ccccc1): 675 nm | emission maximum (in c1ccncc1): 706 nm

SMILES: COc1ccc(NC(=O)C(C(=O)Nc2ccc(OC)cc2)C(c2cc(F)ccc2O)c2c[nH]c3ccc(OC)cc23)cc1 (stereo not given)
emission maximum (in CS(C)=O): 341 nm

SMILES: CCCCCCCCn1cc(-n2c(-c3cc(-c4nc5ccc(C)cc5n4-c4cn(CCCCCCCC)nn4)cc(-c4nc5ccc(C)cc5n4-c4cn(CCCCCCCC)nn4)c3)nc3ccc(C)cc32)nn1
emission maximum (in C1CCOC1): 382.5 nm

SMILES: COc1cc2c(cc1OC)C1=C[C@H](c3ccccc3)C3(C(C#N)=C(C#N)N1CC2)c1ccccc1-c1ccccc13
emission maximum (in ClCCl): 410 nm

SMILES: CCCCCCCCOC(=O)c1ccc(-c2cc3ccc4cc(-c5ccc(C(=O)OCCCCCCCC)cc5)cc5ccc(c2)c3c45)cc1
emission maximum (in Cc1ccccc1): 421 nm

SMILES: Cc1ccc2cc3c(=O)n(C)c(=O)n(C)c3nc2c1
emission maximum (in CC#N): 405 nm | emission maximum (in CC(C)O): 408 nm | emission maximum (in CCO): 409 nm | emission maximum (in CO): 409 nm | emission maximum (in ClC(Cl)Cl): 406 nm | emission maximum (in ClCCl): 405 nm

SMILES: c1ccc(-c2nc(-c3ccc(-c4nc(-c5ccccc5)c(-c5ccccc5)[nH]4)s3)[nH]c2-c2ccccc2)cc1
emission maximum (in C1CCOC1): 457 nm | emission maximum (in CC#N): 458 nm | emission maximum (in CC(=O)O): 503 nm and 502.99 nm | emission maximum (in CC(C)=O): 460 nm and 458 nm | emission maximum (in CCOC(C)=O): 457 nm | emission maximum (in CCOCC): 454 nm and 454.01 nm | emission maximum (in CO): 457 nm | emission maximum (in ClC(Cl)Cl): 485 nm and 484.99 nm

SMILES: CC1(C)c2ccccc2N(c2ccc3c(ccc4nc5ccc6cc(N7c8ccccc8C(C)(C)c8ccccc87)ccc6c5nc43)c2)c2ccccc21
emission maximum (in C1CCCCC1): 484 nm | emission maximum (in C1CCOC1): 661 nm | emission maximum (in Cc1ccccc1): 552 nm | emission maximum (in ClCCl): 699 nm

SMILES: CC(C)[Si](C#Cc1ccc(C#C[Si](C(C)C)(C(C)C)C(C)C)c2nc3c(nc12)Cc1ccccc1-3)(C(C)C)C(C)C
emission maximum (in CCCCCC): 430 nm

Now from value to compound:

emission maximum (in C1CCOC1): 489 nm
SMILES: c1ccc(/C(=C(\c2ccccc2)c2cc(-c3ccccc3)ccc2-c2ccccc2)c2cc(-c3ccccc3)ccc2-c2ccccc2)cc1

emission maximum (in C1CCOC1): 609 nm
SMILES: Cc1ccc(C2=C3C=CC([Se]c4ccccc4)=[N+]3[B-](F)(F)n3c([Se]c4ccccc4)ccc32)cc1

emission maximum (in CCOC(C)=O): 441 nm
SMILES: CCn1c(-c2ccc(-c3ccc4c(c3)C(c3ccccc3)(c3ccccc3)c3ccccc3-4)cc2)c(-c2ccc3ccccc3c2)c(-c2ccc3ccccc3c2)c1-c1ccc(-c2ccc3c(c2)C(c2ccccc2)(c2ccccc2)c2ccccc2-3)cc1

emission maximum (in ClCCl): 486 nm
SMILES: COc1ccc(C#Cc2ccc3nc4ccc(C#Cc5ccc(OC)cc5)cn4c(=O)c3c2)cc1

emission maximum (in CO): 473 nm
SMILES: COc1ccc(-c2nc(-c3ccc(C#N)cc3)[nH]c2-c2ccc(OC)cc2)cc1

emission maximum (in C1CCOC1): 530 nm
SMILES: CC1=[N+]2C(=C(c3ccc(C(=C(c4ccccc4)c4ccccc4)c4ccccc4)cc3)c3ccc(C)n3[B-]2(F)F)C=C1

emission maximum (in ClCCl): 490 nm
SMILES: CCCCOc1c(-c2ccc(N(c3ccccc3)c3ccccc3)cc2)cc2cc(-c3ccc(N(c4ccccc4)c4ccccc4)cc3)c(OCCCC)c3c4c(OCCCC)c(-c5ccc(N(c6ccccc6)c6ccccc6)cc5)cc5cc(-c6ccc(N(c7ccccc7)c7ccccc7)cc6)c(OCCCC)c(c1c23)c54

emission maximum (in C1CCOC1): 555 nm
SMILES: c1cc2ccc1-c1ccc(cc1)-c1sc(c3c1OCCO3)-c1ccc(cc1)-c1ccc(cc1)-c1sc(c3c1OCCO3)-c1ccc(cc1)-c1ccc(cc1)-c1sc-2c2c1OCCO2

emission maximum (in CC#N): 397 nm
SMILES: c1ccc(-c2nc3cc4c(cc3n2-c2ccccc2)nc(-c2ccccc2)n4-c2ccccc2)cc1

emission maximum (in C1CCOC1): 508.44 nm
SMILES: CCN(CC)c1ccc(-c2nc3c4ccccc4n(C)c3nc2-c2ccc([B-](F)(c3c(C)cc(C)cc3C)c3c(C)cc(C)cc3C)cc2)cc1

emission maximum (in ClC(Cl)Cl): 644 nm
SMILES: CCCCCCCCN1C(=O)c2ccc3c4c(-c5ccc6c7ccccc7n(-c7ccccc7)c6c5)cc5c6c(cc(-c7ccc8c9ccccc9n(-c9ccccc9)c8c7)c(c7ccc(c2c37)C1=O)c64)C(=O)N(CCCCCCCC)C5=O
